Literature values as cited in patent publication US20050272649A1, “Conjoint administration of morphogens and ACE inhibitors in treatment of chronic renal failure” (priority 2002, published 2005).
Entries after “also recorded” stand apart in the source; their conditions may differ. Read-outs that look alike come from different tables or passages of the source.

Tests used:
[1] = oral administration; cited from earlier work
AT1 receptor = biological target: T1, AT1 receptor (Homo sapiens, UniProt P30556); settings: cited from earlier work
T1 sequence (P30556 1-359): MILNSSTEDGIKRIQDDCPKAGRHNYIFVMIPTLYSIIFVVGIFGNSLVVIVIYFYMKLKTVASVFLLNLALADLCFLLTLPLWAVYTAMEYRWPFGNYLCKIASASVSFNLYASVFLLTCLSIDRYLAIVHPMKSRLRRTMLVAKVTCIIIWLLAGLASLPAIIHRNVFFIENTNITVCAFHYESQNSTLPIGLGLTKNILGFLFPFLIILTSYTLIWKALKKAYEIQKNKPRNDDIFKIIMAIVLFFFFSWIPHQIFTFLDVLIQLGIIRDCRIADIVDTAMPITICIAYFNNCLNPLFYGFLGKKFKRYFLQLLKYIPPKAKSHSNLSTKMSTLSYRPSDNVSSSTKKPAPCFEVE

hypertension = settings: cited from earlier work; for safety / tolerability (in words): clinical studies
[2] = comparator and dosages as stated in the sentence
[3] = olmesartan medoxomil 20 mg starting dose

CCOc1nc2cccc(C(=O)O)c2n1Cc1ccc(-c2ccccc2-c2nnn[nH]2)cc1 [Candesartan]
oral absorption / bioavailability / pharmacokinetics (in words) [1]: poorly absorbed after oral administration | affinity for the AT1 receptor relative to affinity for the AT2 receptor (AT1 receptor): more than 10,000 times | diastolic blood pressure reduction, adjusted mean more than the 50-mg losartan dosage (hypertension; candesartan 16 mg per day): 3.7 mm Hg | safety / tolerability (in words) (hypertension): both safe and well tolerated | antihypertensive efficacy compared (in words) (hypertension; [2]): Comparable reductions of diastolic blood pressure

CCCCC1=NC2(CCCC2)C(=O)N1Cc1ccc(-c2ccccc2-c2nnn[nH]2)cc1 [Irbesartan]
affinity for the AT1 receptor relative to affinity for the AT2 receptor (AT1 receptor): more than 8,500 times | safety / tolerability (in words) (hypertension): safe and effective | antihypertensive efficacy compared (in words) (hypertension; [2]): as effective as enalapril and atenolol in reducing blood pressure | antihypertensive efficacy compared (in words) (hypertension; comparator and dosages as stated in the sentence, listed as irbesartan): significantly greater

CCCCc1nc(Cl)c(CO)n1Cc1ccc(-c2ccccc2-c2nn[nH]n2)cc1 [Losartan]
safety / tolerability (in words) (hypertension): well tolerated | antihypertensive efficacy compared (in words) (hypertension; comparator and dosages): as efficacious as enalapril and nifedipine for lowering blood pressure; also recorded: no significant difference in antihypertensive efficacy | duration of activity for a dose (hypertension; losartan): 24 h

CCCc1nc2c(C)cc(-c3nc4ccccc4n3C)cc2n1Cc1ccc(-c2ccccc2C(=O)O)cc1 [Telmisartan]
oral absorption / bioavailability / pharmacokinetics (in words) [1]: Nonlinear pharmacokinetics | safety / tolerability (in words) (hypertension): side effect profile similar to that of placebo; also recorded: no rebound hypertension or first-dose orthostatic effect | antihypertensive efficacy compared (in words) (hypertension; [2]): slightly greater antihypertensive effect than enalapril

CCCCC(=O)N(Cc1ccc(-c2ccccc2-c2nnn[nH]2)cc1)[C@H](C(=O)O)C(C)C [Valsartan]
safety / tolerability (in words) (hypertension): both safe and effective | antihypertensive efficacy compared (in words) (hypertension; [2]): as effective as ACE inhibitors enalapril, lisinopril and amlodipine

CCOc1nc2cccc(C(=O)OC(C)OC(=O)OC3CCCCC3)c2n1Cc1ccc(-c2ccccc2-c2nnn[nH]2)cc1 (stereo not drawn) [candesartan cilexetil]
oral absorption / bioavailability / pharmacokinetics (in words) [1]: improves bioavailability; also recorded: conversion to the active compound occurs rapidly and completely

CCCc1nc(C(C)(C)O)c(C(=O)OCc2oc(=O)oc2C)n1Cc1ccc(-c2ccccc2-c2nnn[nH]2)cc1 [olmesartan medoxomil]
antihypertensive efficacy compared (in words) (hypertension; [2]): superior to losartan | reduction of diastolic pressure (average) (hypertension; [3]): 12 mm Hg | reduction of systolic pressure (average) (hypertension; [3]): 15 mm Hg
